Test results as given in patent publication US20230151025A1, “SUBSTITUTED THIAZOLOPYRIDINES, SALTS THEREOF AND THEIR USE AS HERBICIDALLY ACTIVE SUBSTANCES” (Bayer Aktiengesellschaft, priority 2020, published 2023).

Tests used:
Type in all cases: in vivo
[1] = tested on: Stellaria media (STEME); assay: Herbicidal pre-emergence action (A), 1280 g/ha; conditions: visual grading after ca. 3 weeks vs untreated controls
Method in brief: (§1)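 Visual grading of plant damage in percent (0% as untreated control, 100% dead) was done about 3 weeks after treatment. Compounds, as WP or EC in water with 0.5% additive, had been sprayed at 600 l/ha onto the covering soil of freshly sown sandy loam pots.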

[2] = tested on: Kochia scoparia (KCHSC; Bassia scoparia); assay: Herbicidal post-emergence action (B), 1280 g/ha
Method in brief: (§2)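 Greenhouse-grown weeds at the one-leaf stage received a foliar spray of the formulated compound (WP or EC, 0.5% additive, 600 L/ha). Damage was scored visually after about 3 weeks on a 0–100% scale against untreated plants.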

[3] = tested on: Matricaria inodora (MATIN); assay: Herbicidal post-emergence action (B), 1280 g/ha; conditions: rated visually after about 3 weeks vs untreated controls
Method in brief: as §2

[4] = tested on: Amaranthus retroflexus (AMARE); assay: Herbicidal post-emergence action (B), 1280 g/ha; conditions: rated visually after about 3 weeks vs untreated controls
Method in brief: as §2

[5] = tested on: Veronica persica (VERPE); assay: Herbicidal pre-emergence action (A), 1280 g/ha; conditions: visual grading after ca. 3 weeks vs untreated controls
Method in brief: as §1

[6] = tested on: Poa annua (POAAN); assay: Herbicidal pre-emergence action (A), 1280 g/ha; conditions: visual grading after ca. 3 weeks vs untreated controls, 100% = plants have died off, 0% = as control plants
Method in brief: as §1

[7] = tested on: Amaranthus retroflexus (AMARE); assay: Herbicidal pre-emergence action (A), 1280 g/ha; conditions: visual grading after ca. 3 weeks vs untreated controls
Method in brief: as §1

[8] = tested on: Digitaria sanguinalis (DIGSA); assay: Herbicidal post-emergence action (B), 1280 g/ha; conditions: rated visually after about 3 weeks vs untreated controls
Method in brief: as §2

[9] = tested on: Veronica persica (VERPE); assay: Herbicidal post-emergence action (B), 1280 g/ha
Method in brief: as §2

[10] = tested on: Abutilon theophrasti (ABUTH); assay: Herbicidal post-emergence action (B), 1280 g/ha; conditions: rated visually after about 3 weeks vs untreated controls
Method in brief: as §2

[11] = tested on: Lolium rigidum (LOLRI); assay: Herbicidal pre-emergence action (A), 1280 g/ha; conditions: visual grading after ca. 3 weeks vs untreated controls, 100% = plants have died off, 0% = as control plants
Method in brief: as §1

[12] = tested on: Digitaria sanguinalis (DIGSA); assay: Herbicidal pre-emergence action (A), 1280 g/ha; conditions: visual grading after ca. 3 weeks vs untreated controls, 100% = plants have died off, 0% = as control plants
Method in brief: as §1

[13] = tested on: Setaria viridis (SETVI); assay: Herbicidal pre-emergence action (A), 1280 g/ha; conditions: visual grading after ca. 3 weeks vs untreated controls
Method in brief: as §1

[14] = tested on: Matricaria inodora (MATIN); assay: Herbicidal pre-emergence action (A), 1280 g/ha; conditions: visual grading after ca. 3 weeks vs untreated controls
Method in brief: as §1

[15] = tested on: Poa annua (POAAN); assay: Herbicidal post-emergence action (B), 1280 g/ha; conditions: rated visually after about 3 weeks vs untreated controls
Method in brief: as §2

[16] = tested on: Kochia scoparia (KCHSC; Bassia scoparia); assay: Herbicidal pre-emergence action (A), 1280 g/ha; conditions: visual grading after ca. 3 weeks vs untreated controls
Method in brief: as §1

[17] = tested on: Echinochloa crus-galli (ECHCG); assay: Herbicidal pre-emergence action (A), 1280 g/ha; conditions: visual grading after ca. 3 weeks vs untreated controls, 100% = plants have died off, 0% = as control plants
Method in brief: as §1

[18] = tested on: Alopecurus myosuroides (ALOMY); assay: Herbicidal pre-emergence action (A), 1280 g/ha; conditions: visual grading after ca. 3 weeks vs untreated controls, 100% = plants have died off, 0% = as control plants
Method in brief: as §1

[19] = tested on: Setaria viridis (SETVI); assay: Herbicidal pre-emergence action (C), 320 g/ha; conditions: ca. 3 weeks
Excerpt: (§3) ABUTH: Abutilon theophrasti AGSTE: Agrostis tenuis ALOMY: Alopecurus myosuroides AMARE Amaranthus retroflexus DIGSA: Digitaria sanguinalis ECHCG: Echinochloa crus-galli KCHSC: Kochia scoparia LOLRI: Lolium rigidum MATIN: Matricaria inodora POAAN: Poa annua POLCO: Polygonum convolvulus SETVI: Setaria viridis STEME: Stellaria media VERPE: Veronica persica VIOTR: Viola tricolor
(§4) Seeds of mono- and dicotyledonous weed plants and crop plants were sown, in plastic or organic planting pots, in sandy loam and covered with soil. The compounds according to the invention, formulated in the form of wettable powders (WP) or as emulsifiable concentrates (EC), were applied to the surface of the covering soil as aqueous suspension or emulsion, with the addition of 0.5% of an additive, at an application rate of 600 l of water/ha (converted).
(§5) Following treatment, the pots were placed in a greenhouse and kept under optimum growth conditions for the test plants. The visual grading of the damage to the test plants was carried out after ca. 3 weeks in comparison to untreated controls (herbicidal effect in percent (%): 100% effect=plants have died off, 0% effect=as control plants).
(§6) Tables C1 to C13 below show the effects of selected compounds of the general formula (I) according to table 1 on various harmful plants and an application rate corresponding to 320 g/ha obtained by the experimental procedure mentioned above.

[20] = tested on: Echinochloa crus-galli (ECHCG); assay: Herbicidal post-emergence action (B), 1280 g/ha; conditions: rated visually after about 3 weeks vs untreated controls
Method in brief: as §2

[21] = tested on: Stellaria media (STEME); assay: Herbicidal post-emergence action (B), 1280 g/ha
Method in brief: as §2

[22] = tested on: Alopecurus myosuroides (ALOMY); assay: Herbicidal post-emergence action (B), 1280 g/ha; conditions: rated visually after about 3 weeks vs untreated controls
Method in brief: as §2

[23] = tested on: Echinochloa crus-galli (ECHCG); assay: Herbicidal pre-emergence action (C), 320 g/ha; conditions: ca. 3 weeks
Excerpt: as §3, §4, §5, §6

[24] = tested on: Alopecurus myosuroides (ALOMY); assay: Herbicidal pre-emergence action (C), 320 g/ha; conditions: ca. 3 weeks
Excerpt: as §3, §4, §5, §6

[25] = tested on: Echinochloa crus-galli (ECHCG); assay: Herbicidal post-emergence action (D), 320 g/ha; conditions: ca. 3 weeks
Excerpt: as §3
(§7) Seeds of mono- and dicotyledonous weed plants and crop plants were sown, in plastic or organic planting pots, in sandy loam, covered with soil and grown in a greenhouse under controlled growth conditions. 2 to 3 weeks after sowing, the test plants were sprayed in the single-leaf stage. The compounds according to the invention, formulated in form of wettable powders (WP) or as emulsifiable concentrates (EC), were sprayed onto the green plant parts as aqueous suspension or emulsion, with the addition of 0.5% of an additive, at an application rate of 600 l of water/ha (converted). The test plants were placed in the greenhouse for ca. 3 weeks under optimum growth conditions, and then the effect of the preparations was assessed visually in comparison with untreated controls (herbicidal effect in percent (%): 100% effect=plants have died off, 0% effect=as control plants).
(§8) Tables D1 to D13 below show the effects of selected compounds of the general formula (I) according to table 1 on various harmful plants and an application rate corresponding to 320 g/ha obtained by the experimental procedure mentioned above.

[26] = tested on: Alopecurus myosuroides (ALOMY); assay: Herbicidal post-emergence action (D), 320 g/ha; conditions: ca. 3 weeks
Excerpt: as §3, §7, §8

[27] = tested on: Veronica persica (VERPE); assay: Herbicidal post-emergence action (D), 320 g/ha; conditions: ca. 3 weeks
Excerpt: as §3, §7, §8

CCc1cc2sc([S+](C)[O-])nc2nc1-c1ccccc1C (stereo not drawn) [Example I-022]
100%: herbicidal activity AMARE [4]
90%: herbicidal effect STEME [1] | herbicidal effect KCHSC [2] | herbicidal activity MATIN [3]

Cc1cc2sc([S+](C)[O-])nc2nc1-c1ccccc1 (stereo not drawn) [Example I-092]
90%: herbicidal effect VERPE [5] | POAAN, herbicidal effect in percent (%) [6] | herbicidal effect AMARE [7] | herbicidal effect STEME [1] | herbicidal effect VERPE [9] | herbicidal activity ABUTH [10]
100%: herbicidal effect KCHSC [2] | herbicidal activity DIGSA [8] | herbicidal activity AMARE [4]

Fc1cccc(-c2ccc3scnc3n2)c1 [Example I-118]
100%: LOLRI, herbicidal effect in percent (%) [11] | DIGSA, herbicidal effect in percent (%) [12] | herbicidal effect SETVI [13] | POAAN, herbicidal effect in percent (%) [6] | herbicidal effect STEME [1] | herbicidal activity POAAN [15] | herbicidal activity MATIN [3]
90%: herbicidal effect MATIN [14] | herbicidal effect AMARE [7] | herbicidal effect VERPE [9] | herbicidal activity AMARE [4]

CCc1cc2scnc2nc1C1=CCCCC1 [Example I-145]
90%: herbicidal effect KCHSC [16] | herbicidal effect MATIN [14] | herbicidal effect STEME [1] | herbicidal effect SETVI [19] | herbicidal effect KCHSC [2]
100%: LOLRI, herbicidal effect in percent (%) [11] | DIGSA, herbicidal effect in percent (%) [12] | herbicidal effect SETVI [13] | herbicidal effect VERPE [5] | ECHCG, herbicidal effect in percent (%) [17] | POAAN, herbicidal effect in percent (%) [6] | herbicidal effect AMARE [7] | ALOMY, herbicidal effect in percent (%) [18] | herbicidal activity DIGSA [8] | herbicidal effect VERPE [9] | herbicidal activity ECHCG [20] | herbicidal activity AMARE [4] | herbicidal effect STEME [21] | herbicidal activity ALOMY [22]

Clc1cc2scnc2nc1-c1ccsc1 [Example I-191]
90%: herbicidal effect KCHSC [16] | herbicidal effect MATIN [14] | herbicidal effect AMARE [7] | herbicidal effect ALOMY [24] | herbicidal effect ECHCG [25] | herbicidal effect KCHSC [2] | herbicidal activity MATIN [3] | herbicidal effect STEME [21] | herbicidal activity ABUTH [10]
80%: herbicidal effect ALOMY [26]
100%: LOLRI, herbicidal effect in percent (%) [11] | herbicidal effect SETVI [13] | herbicidal effect VERPE [5] | ECHCG, herbicidal effect in percent (%) [17] | POAAN, herbicidal effect in percent (%) [6] | herbicidal effect STEME [1] | ALOMY, herbicidal effect in percent (%) [18] | herbicidal effect ECHCG [23] | herbicidal effect VERPE [9] | herbicidal activity ECHCG [20] | herbicidal activity POAAN [15] | herbicidal activity ALOMY [22]

CCc1cc2scnc2nc1-c1ccccc1OC [Example I-111]
100%: herbicidal effect KCHSC [16] | LOLRI, herbicidal effect in percent (%) [11] | DIGSA, herbicidal effect in percent (%) [12] | herbicidal effect SETVI [13] | ECHCG, herbicidal effect in percent (%) [17] | POAAN, herbicidal effect in percent (%) [6] | herbicidal effect STEME [1] | herbicidal effect KCHSC [2] | herbicidal activity DIGSA [8] | herbicidal activity POAAN [15] | herbicidal activity AMARE [4]
80%: herbicidal effect VERPE [27]
90%: herbicidal effect VERPE [5] | herbicidal effect MATIN [14] | herbicidal effect AMARE [7] | ALOMY, herbicidal effect in percent (%) [18] | herbicidal effect VERPE [9] | herbicidal effect STEME [21]

CCc1cc2sc(S)nc2nc1-c1ccccc1C [Example I-158]
90%: herbicidal effect AMARE [7] | herbicidal effect STEME [1] | herbicidal effect VERPE [9] | herbicidal activity AMARE [4]
100%: ECHCG, herbicidal effect in percent (%) [17] | herbicidal activity POAAN [15] | herbicidal activity MATIN [3]

Cc1cc2sc(S)nc2nc1-c1cccc(F)c1 [Example I-159, 5-(3-fluorophenyl)-6-methyl-thiazolo[4,5-b]pyridine-2-thiol]
90%: herbicidal effect SETVI [13] | herbicidal effect KCHSC [2] | herbicidal activity ABUTH [10]
100%: herbicidal activity DIGSA [8]

Cc1cc2sc(S(C)(=O)=O)nc2nc1-c1ccccc1F [Example I-021]
100%: LOLRI, herbicidal effect in percent (%) [11] | herbicidal effect SETVI [13] | POAAN, herbicidal effect in percent (%) [6] | herbicidal effect AMARE [7] | herbicidal effect STEME [1] | herbicidal effect KCHSC [2] | herbicidal activity POAAN [15] | herbicidal activity MATIN [3]
90%: herbicidal effect KCHSC [16] | herbicidal effect VERPE [5] | herbicidal activity AMARE [4]
